Where two headings read alike, the source gives them in different places.
Tests used:
[1] = system: MOLT-4; experiment: Antiproliferative CCK8 assay, MOLT-4; type: cell-based; conditions: Homo sapiens, leukemia cell, 72 h incubation, average of three replicates, read-out: Relative IC50 against tumor cell line MOLT-4
Description: (§1) The following cell lines, MCF-7, SK-BR-3, K562, Hela, MOLT-4, DU145, U937, and PC3 were purchased from Shanghai Cell Bank, Chinese Academy of Sciences. The cells were maintained at 37 °C in a 5% CO2 incubator in DMEM (Gibco, Invitrogen, Carlsbad, CA, USA) or RPMI1640 (Gibco, Invitrogen) containing 10% FBS. Cell proliferation was determined by CCK8 assay (DOjinDo, Kyoto, Japan). Cells were seeded at a density of 800–1000 cells/well in 384 well plates and treated with solvent control or various concentration of compounds. After 72 h incubation, CCK8 reagent was added and absorbance was measured at 450 nm by using Envision 2104 multi-label Reader (Perkin Elmer, Waltham, MA, USA). Dose-response curves were plotted to determine the IC50 values using Prism 5.0 (Graph Pad software Inc., San Diego, CA, USA).

[2] = system: U937; experiment: Antiproliferative CCK8 assay, U937; type: cell-based; conditions: Homo sapiens, U-937, leukemia cell, 72 h incubation, average of three replicates, read-out: Relative IC50 against tumor cell line U937
Description: as §1

[3] = system: Hela; experiment: Antiproliferative CCK8 assay, Hela; type: cell-based; conditions: Homo sapiens, 72 h incubation, average of three replicates, read-out: Relative IC50 against tumor cell line Hela
Description: as §1

[4] = system: SK-BR-3; experiment: Antiproliferative CCK8 assay, SK-BR-3; type: cell-based; conditions: Homo sapiens, 72 h incubation, average of three replicates, read-out: Relative IC50 against tumor cell line SK-BR-3
Description: as §1

[5] = system: DU145; experiment: Antiproliferative CCK8 assay, DU145; type: cell-based; conditions: Homo sapiens, DU-145, prostate cancer cell, 72 h incubation, average of three replicates, read-out: Relative IC50 against tumor cell line DU145
Description: as §1

[6] = target: PI3Kα (Homo sapiens, UniProt P42336); experiment: PI3K enzymatic activity assay (Kinase-Glo), PI3Kα; type: biochemical
Sequence of PI3Kα (P42336 whole entry, species assumed): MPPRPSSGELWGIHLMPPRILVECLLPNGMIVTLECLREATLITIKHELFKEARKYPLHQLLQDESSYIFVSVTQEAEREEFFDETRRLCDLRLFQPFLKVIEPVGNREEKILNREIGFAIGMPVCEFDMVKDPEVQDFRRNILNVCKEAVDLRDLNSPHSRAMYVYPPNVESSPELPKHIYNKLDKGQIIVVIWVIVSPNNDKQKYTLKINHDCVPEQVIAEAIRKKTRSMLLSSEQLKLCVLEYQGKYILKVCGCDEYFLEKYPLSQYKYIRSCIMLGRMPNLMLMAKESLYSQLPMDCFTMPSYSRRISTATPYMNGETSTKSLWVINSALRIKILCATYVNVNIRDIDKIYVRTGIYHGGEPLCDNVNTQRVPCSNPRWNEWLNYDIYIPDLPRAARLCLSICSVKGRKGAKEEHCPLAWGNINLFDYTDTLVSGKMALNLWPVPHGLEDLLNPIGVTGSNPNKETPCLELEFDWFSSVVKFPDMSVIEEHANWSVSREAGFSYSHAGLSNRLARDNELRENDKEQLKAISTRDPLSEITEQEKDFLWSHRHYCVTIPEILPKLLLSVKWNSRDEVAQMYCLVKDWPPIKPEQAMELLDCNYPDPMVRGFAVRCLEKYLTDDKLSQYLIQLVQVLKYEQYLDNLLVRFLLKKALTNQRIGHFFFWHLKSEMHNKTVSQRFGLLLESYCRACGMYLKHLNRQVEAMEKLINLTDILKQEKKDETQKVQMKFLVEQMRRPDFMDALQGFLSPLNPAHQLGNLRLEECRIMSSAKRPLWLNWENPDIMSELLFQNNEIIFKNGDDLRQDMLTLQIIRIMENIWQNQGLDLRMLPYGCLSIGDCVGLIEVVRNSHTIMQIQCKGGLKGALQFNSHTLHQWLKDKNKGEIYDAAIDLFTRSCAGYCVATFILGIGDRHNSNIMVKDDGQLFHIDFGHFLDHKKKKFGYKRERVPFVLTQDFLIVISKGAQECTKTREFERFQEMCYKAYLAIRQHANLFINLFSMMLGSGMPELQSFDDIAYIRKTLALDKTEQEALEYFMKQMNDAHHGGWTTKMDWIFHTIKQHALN
Sequence of PI3Kα (P27986 whole entry partner, species assumed): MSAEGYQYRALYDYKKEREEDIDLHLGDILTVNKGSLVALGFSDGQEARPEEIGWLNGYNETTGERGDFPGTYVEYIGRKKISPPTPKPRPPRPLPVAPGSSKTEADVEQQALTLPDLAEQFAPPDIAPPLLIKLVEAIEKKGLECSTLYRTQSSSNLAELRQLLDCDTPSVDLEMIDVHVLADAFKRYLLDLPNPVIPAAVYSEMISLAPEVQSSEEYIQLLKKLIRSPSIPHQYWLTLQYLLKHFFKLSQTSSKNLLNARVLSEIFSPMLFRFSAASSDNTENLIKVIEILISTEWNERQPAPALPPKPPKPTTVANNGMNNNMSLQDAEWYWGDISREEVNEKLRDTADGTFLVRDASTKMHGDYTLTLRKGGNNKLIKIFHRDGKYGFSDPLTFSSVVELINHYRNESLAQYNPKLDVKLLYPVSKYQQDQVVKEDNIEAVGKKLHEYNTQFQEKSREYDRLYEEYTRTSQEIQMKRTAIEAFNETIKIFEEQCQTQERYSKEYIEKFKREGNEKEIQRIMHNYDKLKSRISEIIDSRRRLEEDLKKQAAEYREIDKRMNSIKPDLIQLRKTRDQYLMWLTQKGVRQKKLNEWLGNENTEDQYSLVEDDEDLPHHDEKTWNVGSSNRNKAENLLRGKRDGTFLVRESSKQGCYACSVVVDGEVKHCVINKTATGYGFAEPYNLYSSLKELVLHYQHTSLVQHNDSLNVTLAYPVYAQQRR
Description: (§2) We assumed that electronic effects might influence the inhibitory activity of compounds against PI3Kα. […] PI3K reactions were performed in 50 mM HEPES at pH 7.5 with 1 mM EGTA, 100 mM NaCl, 3 mM MgCl2, 2 mM DTT, and 0.03% CHAPS. All tested compounds were dissolved in 100% DMSO. PIP2 and ATP were used as substrates, and the final reaction volume was 10 μL. […] After incubating for 1 h at room temperature, the reactions were quenched by adding 10 μL of Kinase-Glo reagent. Raw data were collected from Flexstation program.

[7] = system: K562; experiment: Antiproliferative CCK8 assay, K562; type: cell-based; conditions: Homo sapiens, 72 h incubation, average of three replicates, read-out: Relative IC50 against tumor cell line K562
Description: as §1

[8] = system: PC3; experiment: Antiproliferative CCK8 assay, PC3; type: cell-based; conditions: Homo sapiens, PC-3, 72 h incubation, average of three replicates, read-out: Relative IC50 against tumor cell line PC3
Description: as §1

[9] = system: MCF-7; experiment: Antiproliferative CCK8 assay, MCF-7; type: cell-based; conditions: Homo sapiens, MCF7, 72 h incubation, average of three replicates, read-out: Relative IC50 against tumor cell line MCF-7
Description: as §1

[10] = target: PI3Kβ (Homo sapiens, UniProt P42338); experiment: PI3K enzymatic activity assay, PI3Kβ; type: biochemical
Sequence of PI3Kβ (P42338 whole entry, species assumed): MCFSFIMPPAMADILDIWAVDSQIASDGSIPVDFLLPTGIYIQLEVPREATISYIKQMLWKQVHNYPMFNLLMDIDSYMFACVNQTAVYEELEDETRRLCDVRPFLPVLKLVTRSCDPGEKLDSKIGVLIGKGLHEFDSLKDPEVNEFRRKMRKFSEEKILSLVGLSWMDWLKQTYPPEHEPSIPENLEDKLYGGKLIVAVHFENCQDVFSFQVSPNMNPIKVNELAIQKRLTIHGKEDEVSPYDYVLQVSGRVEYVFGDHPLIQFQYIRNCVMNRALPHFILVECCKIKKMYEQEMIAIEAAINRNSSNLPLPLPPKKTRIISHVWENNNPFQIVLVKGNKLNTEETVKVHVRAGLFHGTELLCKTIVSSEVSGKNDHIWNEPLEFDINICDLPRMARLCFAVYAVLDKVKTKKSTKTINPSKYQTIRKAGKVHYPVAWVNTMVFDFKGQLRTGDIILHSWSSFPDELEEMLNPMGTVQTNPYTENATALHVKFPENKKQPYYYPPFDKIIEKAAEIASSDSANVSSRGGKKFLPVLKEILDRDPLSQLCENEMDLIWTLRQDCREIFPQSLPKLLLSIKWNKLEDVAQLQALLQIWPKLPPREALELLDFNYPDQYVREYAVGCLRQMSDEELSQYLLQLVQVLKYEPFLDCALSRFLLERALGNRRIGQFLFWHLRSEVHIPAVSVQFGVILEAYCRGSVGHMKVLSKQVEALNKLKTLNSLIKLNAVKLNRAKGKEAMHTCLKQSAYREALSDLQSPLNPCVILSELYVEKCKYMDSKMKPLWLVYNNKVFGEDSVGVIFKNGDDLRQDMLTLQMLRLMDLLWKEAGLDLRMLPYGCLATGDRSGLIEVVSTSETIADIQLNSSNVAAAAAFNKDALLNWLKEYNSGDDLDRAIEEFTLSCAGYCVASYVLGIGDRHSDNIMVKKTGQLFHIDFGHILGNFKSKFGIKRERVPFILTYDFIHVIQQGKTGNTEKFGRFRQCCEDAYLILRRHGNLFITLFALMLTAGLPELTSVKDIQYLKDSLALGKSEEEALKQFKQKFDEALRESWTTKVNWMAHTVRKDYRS
Sequence of PI3Kβ (P27986 whole entry partner, species assumed): as the sequence (P27986 whole entry partner, species assumed) above
Description: as §2

[11] = target: PI3Kδ (Homo sapiens, UniProt O00329); experiment: PI3K enzymatic activity assay, PI3Kδ; type: biochemical
Sequence of PI3Kδ (O00329 whole entry, species assumed): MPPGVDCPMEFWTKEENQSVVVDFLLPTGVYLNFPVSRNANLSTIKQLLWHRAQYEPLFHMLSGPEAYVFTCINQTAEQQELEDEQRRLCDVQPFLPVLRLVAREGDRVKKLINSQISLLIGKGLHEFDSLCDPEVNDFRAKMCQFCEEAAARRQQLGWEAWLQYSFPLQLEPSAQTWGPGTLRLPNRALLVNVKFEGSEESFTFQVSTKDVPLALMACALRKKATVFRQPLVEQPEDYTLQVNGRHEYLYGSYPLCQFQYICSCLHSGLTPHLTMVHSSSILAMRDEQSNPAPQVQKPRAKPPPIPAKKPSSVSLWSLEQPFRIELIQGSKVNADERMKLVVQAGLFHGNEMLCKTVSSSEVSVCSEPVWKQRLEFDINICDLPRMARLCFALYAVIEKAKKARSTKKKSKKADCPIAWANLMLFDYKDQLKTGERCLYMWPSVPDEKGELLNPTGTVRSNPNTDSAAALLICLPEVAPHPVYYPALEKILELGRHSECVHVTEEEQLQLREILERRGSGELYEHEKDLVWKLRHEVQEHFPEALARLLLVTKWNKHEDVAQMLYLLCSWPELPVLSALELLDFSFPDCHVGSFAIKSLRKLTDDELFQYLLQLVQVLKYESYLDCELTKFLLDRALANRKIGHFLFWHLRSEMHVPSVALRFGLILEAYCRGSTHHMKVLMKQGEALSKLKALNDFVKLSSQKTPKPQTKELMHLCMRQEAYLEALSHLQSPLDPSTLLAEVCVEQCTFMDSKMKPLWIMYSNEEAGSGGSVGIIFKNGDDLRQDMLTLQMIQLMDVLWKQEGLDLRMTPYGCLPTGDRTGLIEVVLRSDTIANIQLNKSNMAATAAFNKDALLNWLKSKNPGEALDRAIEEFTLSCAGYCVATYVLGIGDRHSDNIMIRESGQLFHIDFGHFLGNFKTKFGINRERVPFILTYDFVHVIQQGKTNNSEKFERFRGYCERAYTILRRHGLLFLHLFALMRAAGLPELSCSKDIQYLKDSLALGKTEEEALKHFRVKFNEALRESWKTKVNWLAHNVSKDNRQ
Sequence of PI3Kδ (P27986 whole entry partner, species assumed): as the sequence (P27986 whole entry partner, species assumed) above
Description: as §2

[12] = target: PI3Kγ (Homo sapiens, UniProt P48736); experiment: PI3K enzymatic activity assay, PI3Kγ; type: biochemical
Sequence of PI3Kγ (P48736 whole entry, species assumed): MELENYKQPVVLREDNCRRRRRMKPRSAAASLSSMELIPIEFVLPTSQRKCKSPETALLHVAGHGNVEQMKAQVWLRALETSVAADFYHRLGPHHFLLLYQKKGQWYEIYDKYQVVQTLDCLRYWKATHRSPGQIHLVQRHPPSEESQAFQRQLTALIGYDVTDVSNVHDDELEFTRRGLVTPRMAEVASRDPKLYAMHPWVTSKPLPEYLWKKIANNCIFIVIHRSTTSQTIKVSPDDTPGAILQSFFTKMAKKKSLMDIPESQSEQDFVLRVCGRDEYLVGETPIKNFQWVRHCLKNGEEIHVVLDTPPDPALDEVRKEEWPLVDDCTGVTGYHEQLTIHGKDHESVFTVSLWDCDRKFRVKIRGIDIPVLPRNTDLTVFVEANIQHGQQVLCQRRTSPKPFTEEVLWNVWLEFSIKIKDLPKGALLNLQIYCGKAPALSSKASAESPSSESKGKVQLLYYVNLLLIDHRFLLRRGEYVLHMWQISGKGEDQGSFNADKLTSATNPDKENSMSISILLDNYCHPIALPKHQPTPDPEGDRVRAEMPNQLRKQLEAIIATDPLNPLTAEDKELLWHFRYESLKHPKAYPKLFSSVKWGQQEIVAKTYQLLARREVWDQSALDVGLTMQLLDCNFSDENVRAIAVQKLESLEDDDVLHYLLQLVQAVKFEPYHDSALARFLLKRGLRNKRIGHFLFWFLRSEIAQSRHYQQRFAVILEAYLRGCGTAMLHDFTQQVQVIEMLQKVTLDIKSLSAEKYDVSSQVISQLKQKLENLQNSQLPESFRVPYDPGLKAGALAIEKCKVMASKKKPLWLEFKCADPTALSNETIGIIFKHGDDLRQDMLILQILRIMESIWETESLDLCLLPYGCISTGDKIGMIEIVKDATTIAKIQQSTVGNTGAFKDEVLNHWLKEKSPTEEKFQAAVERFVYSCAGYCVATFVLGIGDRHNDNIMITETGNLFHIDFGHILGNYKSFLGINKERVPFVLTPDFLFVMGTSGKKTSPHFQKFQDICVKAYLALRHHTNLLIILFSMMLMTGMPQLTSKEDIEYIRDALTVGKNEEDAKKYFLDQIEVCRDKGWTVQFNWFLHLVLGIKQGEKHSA
Description: as §2

[13] = average of three replicates, 25 μM ATP, 50 μM PIP2, 1 h, room temperature, read-out: IC50, inhibition against PI3Kα

Compound: COC(=O)c1cc(O)c(O)c2c1[C@]1(C)CC[C@H]3C(C)(C)CCC[C@]3(C)[C@H]1C2 [Compound 1, Pelorol]
- IC50 [1]: > 30 µM
- IC50 [2]: > 30 µM
- IC50 [3]: > 30 µM
- IC50 [4]: > 30 µM
- IC50 [5]: 72.7 µM
- IC50 [6]: 38.2 µM
- IC50 [7]: > 30 µM
- IC50 [8]: > 30 µM
- IC50 [9]: > 30 µM

Compound: CC1(C)CCC[C@]2(C)[C@H]3Cc4c(O)c(O)cc(C(=O)O)c4[C@]3(C)CC[C@@H]12 [Compound 2, (4aS,6aR,11aR,11bS)-9,10-diHydroxy-4,4,6a,11b-tetramethyl-2,3,4,4a,5,6,6a,11,11a,11b-decahydro-1H-benzo[a]fluorene-7-carboxylic acid]
- IC50 [5]: > 30 µM
- IC50 [6, 13]: 20.7 µM
- IC50 [7]: > 30 µM
- IC50 [8]: > 30 µM
- IC50 [9]: > 30 µM

Compound: CC(=O)c1cc(O)c(O)c2c1[C@]1(C)CC[C@H]3C(C)(C)CCC[C@]3(C)[C@H]1C2 [Compound 3, 1-((4aS,6aR,11aR,11bS)-9,10-diHydroxy-4,4,6a,11b-tetramethyl-2,3,4,4a,5,6,6a,11,11a,11b-decahydro-1H-benzo[a]fluoren-7-yl)ethanone]
- IC50 [1]: 22.3 µM
- IC50 [2]: > 30 µM
- IC50 [3]: > 30 µM
- IC50 [4]: > 30 µM
- IC50 [5]: > 30 µM
- IC50 [6, 13]: 8.76 µM
- IC50 [7]: > 30 µM
- IC50 [8]: > 30 µM
- IC50 [9]: > 30 µM

Compound: CCc1cc(O)c(O)c2c1[C@]1(C)CC[C@H]3C(C)(C)CCC[C@]3(C)[C@H]1C2 [Compound 4, (4aS,6aR,11aR,11bS)-7-Ethyl-4,4,6a,11b-tetramethyl-2,3,4,4a,5,6,6a,11,11a,11b-decahydro-1H-benzo [a]fluorene-9,10-diol]
- IC50 [1]: > 30 µM
- IC50 [2]: > 30 µM
- IC50 [3]: > 30 µM
- IC50 [4]: > 30 µM
- IC50 [5]: > 30 µM
- IC50 [6, 13]: 83.7 µM
- IC50 [7]: > 30 µM
- IC50 [8]: > 30 µM
- IC50 [9]: > 30 µM

Compound: CC1(C)CCC[C@]2(C)[C@H]3Cc4c(O)c(O)cc(C=O)c4[C@]3(C)CC[C@@H]12 [Compound 5, (4aS,6aR,11aR,11bS)-9,10-diHydroxy-4,4,6a,11b-tetramethyl-2,3,4,4a,5,6,6a,11,11a,11b-decahydro-1H-benzo[a]fluorene-7-carbaldehyde]
- IC50 [1]: 4.27 µM
- IC50 [10]: 8.9 µM
- IC50 [2]: 5.99 µM
- IC50 [11]: > 100 µM
- IC50 [12]: > 100 µM
- IC50 [3]: 13.2 µM
- IC50 [4]: 19.1 µM
- IC50 [5]: 9.01 µM
- IC50 [6, 13]: 5.06 µM
- IC50 [7]: 16.1 µM
- IC50 [8]: 18.4 µM
- IC50 [9]: 38.9 µM

Compound: CC1(C)CCC[C@]2(C)[C@H]3Cc4c(O)c(O)cc(C#N)c4[C@]3(C)CC[C@@H]12 [Compound 6, (4aS,6aR,11aR,11bS)-9,10-diHydroxy-4,4,6a,11b-tetramethyl-2,3,4,4a,5,6,6a,11,11a,11b-decahydro-1H-benzo[a]fluorene-7-carbonitrile]
- IC50 [1]: 2.89 µM
- IC50 [2]: 12.8 µM
- IC50 [3]: 12.1 µM
- IC50 [4]: > 30 µM
- IC50 [5]: 8.13 µM
- IC50 [6, 13]: 49.5 µM
- IC50 [7]: > 30 µM
- IC50 [8]: > 30 µM
- IC50 [9]: 16.5 µM

Compound: CCc1cc(OC)c(OC)c2c1[C@]1(C)CC[C@H]3C(C)(C)CCC[C@]3(C)[C@H]1C2 [Compound 20, (4aS,6aR,11aR,11bS)-7-Ethyl-9,10-diMethoxy-4,4,6a,11b-tetramethyl-2,3,4,4a,5,6,6a,11,11a,11b-decahydro-1H-benzo[a]fluorene]
- IC50 [6, 13]: > 100 µM

From article PMC4926077, “Synthesis of Pelorol and Its Analogs and Their Inhibitory Effects on Phosphatidylinositol 3-Kinase” (Marine Drugs, 2016)
